Reference: patent publication US3966773A, “2-Substituted-3,4-epoxycyclopentan-1-ones, and 2-substituted-3,4-epoxycyclopentan-1-ols” (American Cyanamid Company, priority 1975, dated 1976)

These molecules were tested on bronchospasms elicited by histamine (assay: Bronchodilator activity (Konzett assay), histamine as spasmogenic agent). Conditions: Cavia porcellus; three logarithmic cumulative intravenous doses.
Format: in vivo, guinea pig
Protocol: (§1) Bronchodilator activity was determined in guinea pigs against bronchospasms elicited by intravenous injections of 5-hydroxytryptamine, histamine or acetylcholine by the Konzett procedure. [See J. Lulling, P. Lievens, F. El Sayed and J. Prignot, Arzeimittel-Forschung, 18 995 (1968).]
(§2) In the Table which follows bronchodilater activity for representative compounds of this invention against one or more of the three spasmogenic agents is expressed as an ED50 determined from the results obtained with three logarithemic cumulative intravenous doses.
`CCCCCC(O)/C=C/[C@H]1CCC(=O)[C@@H]1CCCCCC(CC)C(=O)O` (stereo partly drawn) was tested, and the ED50 was 0.145 µg/kg.

What follows are molecules tested on diastolic blood pressure (assay: Hypotensive activity in anesthetized rats). Conditions: Rattus norvegicus; intravenous; dose producing a decrease of about 10 mm. in diastolic blood pressure.
Format: in vivo, rat (male Wistar strain)
Protocol: This procedure is a modification of the technique described by Pike et al., Prostaglandins, Nobel Symposium 2, Stockholm, June, 1966; p. 165.
Male Wistar strain rats (Royal Hart Farms) averaging approximately 250 grams in weight were fastened to rat boards in a supine position by means of canvas vests and limb ties. The femoral area was infiltrated subcutaneously with lidocaine and the iliac artery and vein were exposed and cannulated. Arterial blood pressure (systolic/diastolic) was recorded using a Statham P23 Db pressure, the animals were anethetized before use with pentobarbital, 30 mg./kg. of body weight intravenously, and also were given hexamethoxium bitartrate, 2 mg./kg. of body weight intravenously. The test compounds were prepared by ultrasonic dispersion in a saline-Tween 80 vehicle. A constant intravenous dose volume of 0.5 ml. was administered and test doses ranged from 0.1 to 10.0 mg./kg. of body weight. Increasing or decreasing doses were selected depending on the dose response obtained. In Table 2B below are set forth the minimal doses required to produce a decrease of about 10 mm. in diastolic blood pressure for typical compounds of the present invention.
In the case of `CCCCCC(O)/C=C/[C@H]1CCC(=O)[C@@H]1CCCCCC(CC)C(=O)O` (stereo partly drawn), the minimal effective dose is reported as under 2 mg/kg. For `CCCCC[C@@H](O)/C=C/[C@H]1CCC(=O)[C@@H]1CCCCCC(CC)C(=O)O` (relative stereo) [2-ethyl-9-oxo-15-epi-hydroxy-13-trans-prostenoic acid], the minimal effective dose was 2 to 4 mg/kg. With `CCCCC[C@@H](O)/C=C/[C@H]1CCC(=O)[C@@H]1CCCCCC(C)C(=O)O` (relative stereo) [2-methyl-9-oxo-15-epi-hydroxy-13-trans-prostenoic acid] the minimal effective dose was 2 mg/kg. Work on `CCCCC[C@@H](O)/C=C/[C@H]1CCC(=O)[C@@H]1CCCCCC(C(=O)O)c1ccccc1` (relative stereo) [2-phenyl-9-oxo-15-epi-hydroxy-13-trans-prostenoic acid] yielded a minimal effective dose of 2 to 8 mg/kg. `CCCCC[C@@H](O)/C=C/[C@H]1CCC(=O)[C@@H]1CCCCOCC(=O)O` (relative stereo) [3-oxa-9-oxo-15-epi-hydroxy-13-trans-prostenoic acid] gave a minimal effective dose of 1 to 2 mg/kg. With `CCCCC[C@@H](O)/C=C/[C@H]1CCC(=O)[C@@H]1CCCCSCC(=O)O` (relative stereo) [3-thia-9-oxo-15-epi-hydroxy-13-trans-prostenoic acid] the minimal effective dose was 2 mg/kg. `CCCCCC(O)/C=C/[C@H]1CCC(=O)[C@]1(C)CCCCCCC(=O)O` (relative stereo) [9-oxo-8β-methyl-15-hydroxy-13-trans-prostenoic acid] showed a minimal effective dose of 2 mg/kg. `CCCCC[C@@H](O)/C=C/[C@H]1CCCC(=O)[C@@H]1CCCCCCC(=O)O` (relative stereo) [9-oxo-10a-homo-15-epi-hydroxy-13-trans-prostenoic acid] gave a minimal effective dose of 2 mg/kg. `CCCCCC(O)/C=C/[C@H]1CCC(=O)[C@@H]1CCCCCC(F)C(=O)O` (relative stereo) [9-oxo-15-hydroxy-2-fluoro-13-trans-prostenoic acid] showed a minimal effective dose of 8 mg/kg. `CCCCCC(O)/C=C/[C@H]1CCC(=O)[C@@H]1CCCCCC(C)C(=O)O` (relative stereo) [9-oxo-15-hydroxy-2-methyl-13-trans-prostenoic acid] showed a minimal effective dose of 2 mg/kg. In the case of `CCCCCC(O)/C=C/[C@H]1CCC(=O)[C@@H]1CCCCCC(C(=O)O)c1ccccc1` (relative stereo) [9-oxo-15-hydroxy-2-phenyl-13-trans-prostenoic acid], the minimal effective dose is reported as 8 mg/kg. Work on `CCCCCC(O)/C=C/[C@H]1CCC(=O)[C@@H]1CCCCC(C)(C)CC(=O)O` (relative stereo) [9-oxo-15-hydroxy-3,3-dimethyl-13-trans-prostenoic acid] yielded a minimal effective dose of 8 mg/kg. Molecule `CCCCCC(O)/C=C/[C@H]1CCC(=O)[C@@H]1CCCCOCC(=O)O` (relative stereo) [9-oxo-15-hydroxy-3-oxa-13-trans-prostenoic acid] has a minimal effective dose of under 2 mg/kg. With `CCCCCC(O)/C=C/[C@H]1CCC(=O)[C@@H]1CCCCSCC(=O)O` (relative stereo) [9-oxo-15-hydroxy-3-thia-13-trans-prostenoic acid] the minimal effective dose was 2 mg/kg. With `CC/C=C\CC(O)/C=C/[C@H]1CCC(=O)[C@@H]1C/C=C\CCCC(=O)O` (relative stereo) [9-oxo-15-hydroxy-5-cis,13-trans,17-cis-prostatrienoic acid] the minimal effective dose was under 2 mg/kg. In the case of `CCCCCC(O)/C=C/[C@H]1CCC(=O)[C@@H]1CCCCCCCCC(=O)O` (relative stereo) [9-oxo-15-hydroxy-7a,7b-bishomo-13-trans-prostenoic acid], the minimal effective dose is reported as under 8 mg/kg. With `CCCCCC(O)/C=C/[C@H]1CCCC(=O)[C@@H]1CCCCCCC(=O)O` (relative stereo) [9-oxo-15-hydroxy-10a-homo-13-trans-prostenoic acid] the minimal effective dose was 2 mg/kg. With `CCCCCC(O)/C=C\[C@H]1CCC(=O)[C@@H]1CCCCCCC(=O)O` (relative stereo) [9-oxo-15-hydroxy-13-cis-prostenoic acid, 15-hydroxy-9-oxo-13-cis-prostenoic acid] the minimal effective dose was 2 to 4 mg/kg. With `CC/C=C\CC(O)/C=C/[C@H]1CCC(=O)[C@@H]1CCCCCCC(=O)O` (relative stereo) [9-oxo-15-hydroxy-13-trans,17-cis-prostadienoic acid] the minimal effective dose was under 2 mg/kg. Work on `CCCCC(C)(C)C(O)/C=C/[C@H]1CCC(=O)[C@@H]1CCCCOCC(=O)O` (relative stereo) [9-oxo-15-hydroxy-16,16-dimethyl-3-oxa-13-trans-prostenoic acid] yielded a minimal effective dose of under 2 mg/kg. Molecule `CCCCC(C)(C)C(O)/C=C/[C@H]1CCC(=O)[C@@H]1CCCCSCC(=O)O` (relative stereo) [9-oxo-15-hydroxy-16,16-dimethyl-3-thia-13-trans-prostenoic acid] has a minimal effective dose of under 2 mg/kg. For `CCCCC(C)(C)C(O)/C=C/[C@H]1CCC(=O)[C@@H]1CCCCCCC(=O)O` (relative stereo) [9-oxo-15-hydroxy-16,16-dimethyl-13-trans-prostenoic acid], the minimal effective dose was under 2 mg/kg. `CCCCC(CC)C(O)/C=C/[C@H]1CCC(=O)[C@@H]1CCCCCCC(=O)O` (relative stereo) [9-oxo-15-hydroxy-16-ethyl-13-trans-prostenoic acid] showed a minimal effective dose of under 8 mg/kg. In the case of `CCC/C=C/C(O)CC[C@H]1CCC(=O)[C@@H]1CCCCCCC(=O)O` (relative stereo) [9-oxo-15-hydroxy-16-trans-prostenoic acid], the minimal effective dose is reported as under 2 mg/kg. `CCCC(C)(C)CC(O)/C=C/[C@H]1CCC(=O)[C@@H]1CCCCCCC(=O)O` (relative stereo) [9-oxo-15-hydroxy-17,17-dimethyl-13-trans-prostenoic acid] showed a minimal effective dose of 2 mg/kg. Molecule `CCCCC[C@@H](O)/C=C/[C@H]1CCC(=O)[C@@H]1CCCCOCC(=O)OCC` (relative stereo) [Ethyl 3-oxa-9-oxo-15-epi-hydroxy-13-trans-prostenoate] has a minimal effective dose of 0.2 mg/kg. `CCCCCC(O)/C=C/[C@H]1CCC(=O)[C@@H]1CCCCOCC(=O)OCC` (relative stereo) [Ethyl 9-oxo-15-hydroxy-3-oxa-13-trans-prostenoate] showed a minimal effective dose of 0.2 mg/kg. In the case of `CCCCCC(O)/C=C/[C@H]1CCCC(=O)[C@@H]1CCCCCCC(=O)OCC` (relative stereo) [Ethyl 9-oxo-15-hydroxy-10a-homo-13-trans-prostenoate], the minimal effective dose is reported as 2 mg/kg. For `CCCCCC(O)CC[C@H]1CCC(=O)[C@@H]1CCCCCC(CC)C(=O)O` (stereo partly drawn) [2-ethyl-9-oxo-15-hydroxy-prostanoic acid, 9-oxo-15-hydroxy-2-ethyl-prostanoic acid], the minimal effective dose was 0.2 mg/kg. Molecule `CC/C=C\CC(C)(O)/C=C/[C@H]1CCC(=O)[C@@H]1C/C=C\CCCC(=O)O` (stereo partly drawn) [9-oxo-15-hydroxy-15-methyl-5-cis,13-trans,17-cis-prostatrienoic acid] has a minimal effective dose of under 2 mg/kg. For `CCCC#CC(O)CC[C@H]1CCC(=O)[C@@H]1CCCCCCC(=O)O` (stereo partly drawn) [9-oxo-15-hydroxy-16-prostynoic acid], the minimal effective dose was 2 mg/kg.

What follows are molecules tested on bronchospasms elicited by acetylcholine (assay: Bronchodilator activity (Konzett assay), acetylcholine as spasmogenic agent). Conditions: Cavia porcellus, read-out: Bronchodilator Activity ED50, spasmogenic agent acetylcholine; three logarithmic cumulative intravenous doses; read-out: Bronchodilator Activity ED50, spasmogenic agent choline.
Format: in vivo, guinea pig
Protocol: as §1, §2
`CCCCCC(O)/C=C/[C@H]1CCC(=O)[C@@H]1CCCCCC(CC)C(=O)O` (stereo partly drawn) showed an ED50 of 0.533 µg/kg. In the case of `CCCCCC(O)/C=C\[C@H]1CCC(=O)[C@@H]1CCCCCCC(=O)O` (relative stereo) [9-oxo-15-hydroxy-13-cis-prostenoic acid, 15-hydroxy-9-oxo-13-cis-prostenoic acid], the ED50 is reported as 0.32 µg/kg. `CCCC#CC(O)CC[C@H]1CCC(=O)[C@@H]1CCCCCCC(=O)O` (stereo partly drawn) [9-oxo-15-hydroxy-16-prostynoic acid] was tested, and the ED50 was 0.32 µg/kg.

These molecules were tested on bronchospasms elicited by 5-hydroxytryptamine (assay: Bronchodilator activity (Konzett assay), 5-hydroxytryptamine as spasmogenic agent). Conditions: Cavia porcellus; three logarithmic cumulative intravenous doses.
Format: in vivo, guinea pig
Protocol: as §1, §2
Work on `CCCCCC(O)/C=C/[C@H]1CCC(=O)[C@@H]1CCCCCC(CC)C(=O)O` (stereo partly drawn) yielded an ED50 of 0.329 µg/kg.
